# Patent EP4205768A1, “MAGNETIC SOLID LIPID NANOPARTICLES, METHODS AND USES THEREOF” (priority 2021, dated 2023)
# pIC50: −log10 of the molar value. “Also recorded” adds a separate entry of the source.
# Legend:
# Hs-578T cells = assay: Wound-healing (cell migration) assay; type: cell-based; details: at the IC50 DOX concentration, up to 48h
# Protocol: The effect of the functionalized mSLNs AF-2 (EBR85, T-sensitive, +DOX) and AF-3 (EBR89, T-insensitive, -DOX) and reference compound (DOX) on the cell migration capability of Hs-578T cells was assessed through the wound-healing assay. mSLNs (with and without DOX) at the IC50 DOX concentration and equivalent mSLNs were used in the experiment. EBR89 (without DOX) was selected to study the effect of the nanoparticle nature on this tumorigenic feature and evaluate its toxicity. Cell migration and invasion are two hallmarks of cancer correlated to cancer progression and metastasis which correspond to a worse cancer prognosis.
# Results are presented as mean ± SD of at least three independent experiments.
# [1] = system: triple negative breast cancer cells (Hs-578T); assay: Resazurine cell viability assay, 2D culture, with or without magnetic hyperthermia; type: cell-based; details: Homo sapiens
# Protocol: In an embodiment, 2D- cell culture was prepared. Hs-578T and MBA-MB-231 TNBC cell lines (ATCC HTB-126 and ATCC Htb-26, respectively) were grown in Dulbecco's Modified Eagle's Medium (DMEM) supplemented with 10% foetal bovine serum and 1% penicillin/streptomycin. THP-1 peripheral blood monocytes (ATCC TIB-202) were grown in Gibco Roswell Park Memorial Institute (RPMI) medium supplemented with 10% foetal bovine serum and 1% penicillin/streptomycin. All cell lines were incubated at 37 °C in a 5% CO2 atmosphere.
# In an embodiment, cell viability was assessed. The Resazurine assay was used to calculate the cell viability. The assay is based on the reduction by living cells of the oxidized blue dye to a pink fluorescent resorufin product. […] The fluorescence of each condition was then read with an Biotek Synergy H1 plate reader, and compared to the controls using the formula {Viability = (Treated cells−blank)/(Untreated cells−blank) × 100 [formula] }. […] For each, the inhibitory concentration 50 (IC50) of each formulation was calculated using the DRC R-package. […] The activity gain (AG) for the different formulations was calculated as {AGF=100×(IC50^(free DOX) −IC50^mSLNP)/(IC50^(free DOX))} [formula] , whilst the AG of the magnetic hyperthermia event was calculated as {AGMH=100×(IC50^noHT −IC50^HT)/(IC50^noHT)} [formula] . […]
# Hs-578T polyspheroids = assay: 3D polyspheroid growth assay with dual treatment (formulation + AMF); type: cell-based; details: 2 µM relative to DOX + 1h AMF on days 1, 3 and 5; monitored 19 days
# Protocol: In an embodiment, 3D spheroids were prepared. In a 96-well plate was a hot and sterile solution of 1% agarose added (100 µL) and left to cool for 30 min at 4 °C. Then, the plate was tempered and 20000 cancer cells added to each well in 120 µ L of medium. The plate was centrifugated at 800 G during 30 min to promote the formation of the spheroid. The Spheroids were incubated for one week with a medium change every 3 days, until a small dense Spheroid was formed. These spheroids were used in confocal microscopy, or to form poly-spheroids. […]
# In an embodiment, growth assay was performed. […] The polyspheroids were monitored every 2 days before treatments or medium change, using an inverted phase-contrast microscope (Nikon Eclipse TS100, Nikon Corporation, Tokyo, Japan) connected to a digital camera (Nikon, DS-Fi1). […] The images were analyzed with image J and R statistical language, using R-packages imager and EBImage, to determine the area of each polyspheroids treated with each condition for every day analyzed. The growth of the polyspheroids were normalized in regards to their own initial area at the start of the experiment, and calculated as { Growth = 100 × (Area−Area^day1)/(Area^day1) [formula] }. The daily growth was calculated as {Growth^daily=(∑Growth)/(19 days)} [formula] . […]
# chick embryo = assay: Toxicity to the embryo in the in ovo model; type: in vivo, chicken; details: 2xIC50 (DOX concentration), throughout the experiment
# Protocol: (§1) (A) In ovo pictures at day 13 of embryo development and in ovo and ex ovo pictures at day 17; representative images were taken at 20x in a Zeiss stereomicroscope. (B) Graphical representation of tumor growth. Data was analyzed by one-way ANOVA and the results are representative for the mean of at least 15 eggs per group;^∗∗∗p<0.0001 ^∗p<0.05. Hs578t cells were used to establish a TNBC chicken egg model. Fertilized eggs were incubated for 9 days and, at this time, the chicken embryo is surrounded by the CAM which provides nutrients for its development. At day 13 of development, the tumor mass could be visualized and the resulting tumors were treated with 2xlC50 EBR85-functionalized nanoparticles (corresponding to DOX concentration). The same concentration of DOX was used for the group treated with DOX alone. Also, a control group treated with DMEM medium was used to evaluate tumorgrowth. […] As observed in Figure 16, a significant reduction on tumor size could be appreciated for the EBR85-treated group, comparing to the control and DOX-treated groups.
# Hs578t tumor = assay: In ovo (CAM) tumor growth model; type: in vivo, chicken; details: 2xIC50 (DOX concentration), treated at day 13, read at day 17
# Protocol: as §1
structure (smiles),measurement,setting,value
"COc1cccc2c1C(=O)c1c(O)c3c(c(O)c1C2=O)C[C@@](O)(C(=O)CO)C[C@@H]3O[C@H]1C[C@H](N)[C@H](O)[C@H](C)O1 [DOX, Doxorubicin]",cell migration capability,Hs-578T cells,very low migration capability
same,pIC50,"[1]; 72h, without magnetic hyperthermia",5.80
same,pIC50,"[1]; Figure 4C experiment, EBR85 with 1h magnetic hyperthermia then 72 h, free DOX as reference",5.82
same,polyspheroid growth,Hs-578T polyspheroids,continued to grow during the first week of treatment; also recorded: slowing down its growth
same,toxicity to the chick embryo,chick embryo,no toxicity
same,regression in the tumors' area,Hs578t tumor,11%
